# Assay results from ChEMBL document CHEMBL3232786, “Therapeutic utility of cannabinoid receptor type 2 (CB(2)) selective agonists” (J Med Chem, 2013).
# How the values were obtained:
# Cannabinoid receptor 2 [1] = target: T1, Cannabinoid receptor 2 (Homo sapiens, UniProt P34972); test: Agonist activity at human CB2 receptor expressed in Sf9 membranes assessed as effect on [35S]-GTPgammaS binding after 30 mins by scintillation counting; assay type: functional, cell membranes
# Cannabinoid receptor 2 [2] = target: T1, Cannabinoid receptor 2; test: Agonist activity at human CB2 receptor assessed as inhibition of forskolin-induced cAMP production preincubated for 15 mins followed by forskolin challenge measured after 30 mins by HTRF assay; assay type: functional
# Cannabinoid receptor 2 [3] = target: T1, Cannabinoid receptor 2; test: Binding affinity to CB2 receptor (unknown origin)
# Cannabinoid receptor 1 [4] = target: T2, Cannabinoid receptor 1 (Homo sapiens, UniProt P21554); test: Binding affinity to CB1 receptor (unknown origin)
# T2 sequence (P21554 whole entry): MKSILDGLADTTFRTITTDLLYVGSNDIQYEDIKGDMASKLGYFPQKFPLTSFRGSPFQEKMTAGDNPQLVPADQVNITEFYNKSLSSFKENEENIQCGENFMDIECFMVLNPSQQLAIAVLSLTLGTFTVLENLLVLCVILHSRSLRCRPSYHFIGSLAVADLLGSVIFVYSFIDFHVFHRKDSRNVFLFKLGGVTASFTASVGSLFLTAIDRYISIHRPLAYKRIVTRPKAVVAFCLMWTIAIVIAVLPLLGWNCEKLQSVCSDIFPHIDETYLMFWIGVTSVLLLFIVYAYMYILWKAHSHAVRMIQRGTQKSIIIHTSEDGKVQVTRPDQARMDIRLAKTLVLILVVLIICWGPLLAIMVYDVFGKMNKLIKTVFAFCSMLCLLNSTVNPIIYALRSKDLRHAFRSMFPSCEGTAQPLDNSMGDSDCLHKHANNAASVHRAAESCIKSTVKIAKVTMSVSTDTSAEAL
# Cannabinoid receptor 1 [5] = target: T3, Cannabinoid receptor 1 (Rattus norvegicus, UniProt P20272); test: Displacement of [3H]-CP55940 from CB1 receptor of rat cerebellar membranes by liquid scintillation counting in presence of serine protease inhibitor PMSF; set-up: species or system Cerebellum, Membrane
# T3 sequence (P20272 whole entry): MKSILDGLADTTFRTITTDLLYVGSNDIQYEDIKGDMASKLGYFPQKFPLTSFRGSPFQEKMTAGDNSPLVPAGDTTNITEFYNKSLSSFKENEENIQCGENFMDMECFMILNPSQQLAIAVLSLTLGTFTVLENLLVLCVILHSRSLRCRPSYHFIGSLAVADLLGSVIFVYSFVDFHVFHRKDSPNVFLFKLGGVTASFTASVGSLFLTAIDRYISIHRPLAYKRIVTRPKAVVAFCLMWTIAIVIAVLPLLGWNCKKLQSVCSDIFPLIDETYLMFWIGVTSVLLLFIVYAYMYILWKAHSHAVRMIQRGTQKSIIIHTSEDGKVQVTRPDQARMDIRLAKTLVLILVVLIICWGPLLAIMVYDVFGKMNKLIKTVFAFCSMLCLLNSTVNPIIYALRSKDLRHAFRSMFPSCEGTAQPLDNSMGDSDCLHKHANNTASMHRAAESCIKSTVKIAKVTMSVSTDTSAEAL
# Cannabinoid receptor 2 [6] = target: T4, Cannabinoid receptor 2 (Rattus norvegicus, UniProt Q9QZN9); test: Displacement of [3H]-CP55940 from CB2 receptor of rat spleen membranes by liquid scintillation counting in presence of serine protease inhibitor PMSF; assay type: tissue-based, Membrane
# T4 sequence (Q9QZN9 whole entry): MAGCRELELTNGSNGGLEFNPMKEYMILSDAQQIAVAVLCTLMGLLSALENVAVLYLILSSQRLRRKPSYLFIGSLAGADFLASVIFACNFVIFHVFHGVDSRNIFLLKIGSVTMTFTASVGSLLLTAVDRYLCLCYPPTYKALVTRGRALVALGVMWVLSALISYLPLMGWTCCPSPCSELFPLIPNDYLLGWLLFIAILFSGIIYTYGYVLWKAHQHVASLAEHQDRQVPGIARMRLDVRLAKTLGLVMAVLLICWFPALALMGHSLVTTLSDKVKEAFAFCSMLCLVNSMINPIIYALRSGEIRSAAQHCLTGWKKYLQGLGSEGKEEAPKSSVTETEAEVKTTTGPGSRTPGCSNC
# Rattus norvegicus = organism: Rattus norvegicus; test: Selectivity ratio of Ki for CB2 receptor of rat spleen membranes to Ki for CB1 receptor of rat cerebellar membranes; assay type: tissue-based
# Cannabinoid receptor 1 [7] = target: T3, Cannabinoid receptor 1; test: Displacement of [3H]SR141716A from rat brain CB1 receptor by liquid scintillation spectrophotometry
# Cannabinoid receptor 2 [8] = target: T1, Cannabinoid receptor 2; test: Agonist activity at human CB2 receptor expressed in CHO-K1 cells assessed as inhibition of forskolin-induced cAMP accumulation by TR-FRET assay; assay type: functional, cell-based
# Cannabinoid receptor 1 [9] = target: T2, Cannabinoid receptor 1; test: Agonist activity at human CB1 receptor expressed in CHO-K1 cells assessed as inhibition of forskolin-induced cAMP accumulation by TR-FRET assay; assay type: functional, cell-based
# Cannabinoid receptor 1 [10] = target: T2, Cannabinoid receptor 1; test: Agonist activity at human CB1 receptor assessed as inhibition of forskolin-induced cAMP production preincubated for 15 mins followed by forskolin challenge measured after 30 mins by HTRF assay; assay type: functional
# Cannabinoid receptor 2 [11] = target: T4, Cannabinoid receptor 2; test: Displacement of [3H]-CP55940 from rat CB2 receptor expressed in CHO-K1 cells by liquid scintillation spectrophotometry; assay type: cell-based
# Cannabinoid receptor 2 [12] = target: T1, Cannabinoid receptor 2; test: Displacement of [3H]-CP55940 from human CB2 receptor expressed in CHO-K1 cells by liquid scintillation counting; assay type: cell-based
# Cannabinoid receptor 1 [13] = target: T2, Cannabinoid receptor 1; test: Displacement of [3H]-CP55940 from human CB1 receptor expressed in CHO-K1 cells by liquid scintillation counting; assay type: cell-based
# [14] = Displacement of [3H]-CP55940 from cynomolgus monkey CB2 receptor by liquid scintillation counting; set-up: species or system Macaca fascicularis
# Cannabinoid receptor 2 [15] = target: Cannabinoid receptor 2 (Mus musculus, UniProt P47936); test: Displacement of [3H]-CP55940 from mouse CB2 receptor by liquid scintillation counting
# Cannabinoid receptor 2 (Mus musculus, UniProt P47936), sequence (P47936 whole entry): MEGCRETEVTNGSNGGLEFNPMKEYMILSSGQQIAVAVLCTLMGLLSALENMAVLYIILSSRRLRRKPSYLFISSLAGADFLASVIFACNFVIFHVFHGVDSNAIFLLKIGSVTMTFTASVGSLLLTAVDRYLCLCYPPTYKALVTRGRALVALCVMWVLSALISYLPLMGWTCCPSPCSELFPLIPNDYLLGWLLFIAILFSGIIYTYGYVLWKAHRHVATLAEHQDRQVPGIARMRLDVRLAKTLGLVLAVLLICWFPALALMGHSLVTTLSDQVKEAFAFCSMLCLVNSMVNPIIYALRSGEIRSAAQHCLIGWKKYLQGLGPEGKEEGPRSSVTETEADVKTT
# Homo sapiens = organism: Homo sapiens; test: Selectivity ratio of Ki for human CB1 receptor to Ki for human CB2 receptor
# Cannabinoid receptor 2 [16] = target: T1, Cannabinoid receptor 2; test: Agonist activity at human CB2 receptor expressed in human SK-N-MC cells by CRE-beta galactosidase reporter gene assay; assay type: functional, cell-based
# Cannabinoid receptor 1 [17] = target: T2, Cannabinoid receptor 1; test: Agonist activity at human CB1 receptor expressed in human SK-N-MC cells by CRE-beta galactosidase reporter gene assay; assay type: functional, cell-based
# Cannabinoid receptor 2 [18] = target: T4, Cannabinoid receptor 2; test: Inverse agonist activity at rat CB2 receptor expressed in CHO-K1 cells assessed as inhibition of forskolin-induced cAMP accumulation; assay type: functional, cell-based
# Cannabinoid receptor 2 [19] = target: T1, Cannabinoid receptor 2; test: Agonist activity at human CB2 receptor expressed in Saccharomyces cerevisiae MMY23 using fluorescein di-beta-D-glucopyranoside as substrate after 24 hrs by fluorescence-based assay
# Cannabinoid receptor 2 [20] = target: T1, Cannabinoid receptor 2; test: Displacement of [3H]-CP55940 from human CB2 receptor expressed in HEK293 cells after 90 mins by liquid scintillation counting; assay type: cell-based
# Cannabinoid receptor 1 [21] = target: T2, Cannabinoid receptor 1; test: Displacement of [3H]-CP55940 from human CB1 receptor expressed in HEK293 cells after 90 mins by liquid scintillation counting; assay type: cell-based
# Mus musculus = test: Antinociceptive activity against iv dosed ICR mouse measured at 20 mins by tail flick test; assay type: functional
# Cannabinoid receptor 1 [22] = target: T2, Cannabinoid receptor 1; test: Binding affinity to human CB1 receptor
# Cannabinoid receptor 2 [23] = target: T1, Cannabinoid receptor 2; test: Binding affinity to human CB2 receptor
# Cannabinoid receptor 1 [24] = target: T3, Cannabinoid receptor 1; test: Binding affinity to rat CB1 receptor
# [25] = Selectivity ratio of Ki for rat CB1 receptor to Ki for human CB2 receptor
# T1 sequence (P34972 whole entry): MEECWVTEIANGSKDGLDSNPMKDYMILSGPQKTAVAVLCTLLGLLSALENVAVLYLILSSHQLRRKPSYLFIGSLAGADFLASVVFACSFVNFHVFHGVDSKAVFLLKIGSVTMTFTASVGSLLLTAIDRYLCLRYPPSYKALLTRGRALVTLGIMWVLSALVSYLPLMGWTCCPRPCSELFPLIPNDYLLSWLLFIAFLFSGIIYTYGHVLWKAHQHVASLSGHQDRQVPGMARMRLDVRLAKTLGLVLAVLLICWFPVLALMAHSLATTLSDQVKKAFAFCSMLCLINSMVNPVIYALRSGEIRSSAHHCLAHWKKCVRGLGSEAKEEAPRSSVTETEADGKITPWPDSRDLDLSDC
smiles,measurement,setting,value
Cc1c(C(=O)c2cccc(Cl)c2Cl)c2ccsc2n1CCN1CCOCC1,EC50,Cannabinoid receptor 2 [1],< 100 nM
FC1(F)CCN(Cc2nc(-c3cccc(C(F)(F)F)c3)n3ccccc23)CC1,EC50,Cannabinoid receptor 2 [2],17 nM
COc1cccc2c(C(=O)N[C@@H]3C(C)(C)[C@@H]4CC[C@@]3(C)C4)cn(CCN3CCOCC3)c12,Ki,Cannabinoid receptor 2 [3],11 nM
same,Ki,Cannabinoid receptor 1 [4],245 nM
CCCCC/C=C\C/C=C\C/C=C\C/C=C\CCCC(=O)NC1CC1,Ki,Cannabinoid receptor 1 [5],2.2 nM
same,Ki,Cannabinoid receptor 2 [6],715 nM
same,Ratio Ki,Rattus norvegicus,325
CC(=O)Oc1cc(O[C@H](C)CCCc2ccccc2)cc2c1[C@@H]1C[C@H](O)CC[C@H]1[C@H](C)N2 [LEVONANTRADOL],Ki,Cannabinoid receptor 1 [7],2.9 nM
CS(=O)(=O)N1CCc2c(cc(-c3cccc(Cl)c3)c(=O)n2CC2CCC2)C1,EC50,Cannabinoid receptor 2 [8],< 100 nM
same,EC50,Cannabinoid receptor 1 [9],> 10000 nM
CCCCCn1cc(C(=O)c2cccc3ccccc23)c2ccccc21,Ki,Cannabinoid receptor 1 [4],9.5 nM
CNC(=O)[C@@H](NC(=O)c1nc(-c2ccccc2)n2c1CN(C)CCC2)C(C)(C)C,EC50,Cannabinoid receptor 2 [2],10 nM
same,EC50,Cannabinoid receptor 1 [10],> 10000 nM
COc1cccc2c(C(=O)c3ccc(Br)c4ccccc34)c(C)n(CCN3CCOCC3)c12,Ki,Cannabinoid receptor 1 [4],> 1000 nM
Cc1c2n(c(=O)c3cc(OC(=O)C(C)(C)C)cc(OC(=O)C(C)(C)C)c13)CCCC2,Ki,Cannabinoid receptor 2 [11],2.4 nM
same,Ki,Cannabinoid receptor 2 [12],6.8 nM
same,Ki,Cannabinoid receptor 1 [13],2630 nM
same,Ki,[14],5.4 nM
same,Ki,Cannabinoid receptor 2 [15],4.8 nM
same,Ratio Ki,Homo sapiens,450
C[C@H](NS(=O)(=O)/C=C/c1n[nH]c2c1CCCC[C@@H]2Cc1cccc(F)c1)c1ccccc1,EC50,Cannabinoid receptor 2 [16],9 nM
same,EC50,Cannabinoid receptor 1 [17],> 5000 nM
same,Ratio Ki,Homo sapiens,> 550
Cc1ccc2c(c1)Cc1c(C(=O)NN3CCCCC3)nn(-c3ccc(Cl)cc3Cl)c1-2,Ki,Cannabinoid receptor 2 [3],0.037 nM
COc1cccc2c(C(=O)N[C@@H]3C(C)(C)[C@@H]4CC[C@@]3(C)C4)nn(CCN3CCOCC3)c12,Ki,Cannabinoid receptor 2 [3],2 nM
same,Ki,Cannabinoid receptor 1 [4],24 nM
CC(C)(C)c1cn(C[C@H]2CCCO2)/c(=N/C(=O)c2cc(C(F)(F)F)ccc2OCc2ccccn2)s1,EC50,Cannabinoid receptor 2 [12],1 nM
same,IC50,Cannabinoid receptor 1 [13]; read-out: EC50 (the source's name),> 27000 nM
CN1CCCC[C@@H]1Cn1cc(C(=O)c2cc([N+](=O)[O-])ccc2I)c2ccccc21,EC50,Cannabinoid receptor 2 [18],315 nM
O=S(=O)(c1ccc2c(c1)C1C3CCC(C3)C1C(c1ccccc1)N2)N1CCOCC1 (stereo unspecified),EC50,Cannabinoid receptor 1 [9],> 10000 nM
O=S(=O)(c1ccc(Cl)cc1)c1cnc2c(NCC3CCOCC3)cccc2c1,EC50,Cannabinoid receptor 2 [19],< 1000 nM
CC1OCc2sc(NC(=O)C3C(C)(C)C3(C)C)c(C(=O)N3CC(F)(F)C3)c21 (stereo unspecified),Ratio Ki,Homo sapiens,10
CCNC(=O)c1c(NC(=O)C23CC4CC(CC(C4)C2)C3)sc2c1CCOC2,EC50,Cannabinoid receptor 2 [20],21 nM
same,EC50,Cannabinoid receptor 1 [21],> 1.5 nM
CCCCCc1cc(O)c2c(c1)OC(C)(C)[C@@H]1CCC(C)=C[C@@H]21 [DRONABINOL],ED50,Mus musculus,0.02 mg/kg
CCCCCCC(C)(C)c1cc(O)c2c(c1)OC(C)(C)[C@@H]1CC=C(C)C[C@@H]21,Ratio Ki,Homo sapiens,1.7
O=C(Nc1sc2c(c1C(=O)N1CCC1)CC1CCC2O1)c1c(F)cccc1C(F)(F)F (stereo unspecified),Ratio Ki,Homo sapiens,10
CCCCCCC(C)(C)c1cc(O)c2c(c1)OC(C)(C)[C@@H]1CC=C(CO)C[C@@H]21,Ki,Cannabinoid receptor 1 [22],0.73 nM
CCCCCCC(C)(C)c1cc(O)c2c(c1)OC(C)(C)[C@@H]1CC=C(OO)C[C@@H]21,Ki,Cannabinoid receptor 2 [23],0.032 nM
same,Ki,Cannabinoid receptor 1 [24],1.2 nM
same,Ratio Ki,[25],38
CCCCCc1ccc2c(c1)OC(C)(C)[C@@H]1CC=C(C)C[C@@H]21,Ki,Cannabinoid receptor 2 [23],32 nM
same,Ki,Cannabinoid receptor 1 [24],> 10000 nM
same,Ratio Ki,[25],> 312
O=C(NC1CCCC1)c1ccc2c(c1)N(S(=O)(=O)c1ccc(F)cc1)CCS2,EC50,Cannabinoid receptor 2 [8],1 nM
same,EC50,Cannabinoid receptor 1 [9],10 nM
